In patent US20250163037A1, “SUBSTITUTED ISOXAZOLINE DERIVATIVES” (BASF SE, priority 2022, published 2025):
Where two headings read alike, the source gives them in different places.

Assays:
Format in all cases: in vivo
[1] = test system: Yellow Fever Mosquito (Aedes aegypti); assay: whole plant or invertebrate; details: 48 h, larval mortality after 2 days, read-out: mortality in comparison with untreated controls
Description: For evaluating control of Yellow Fever Mosquito, the test unit consisted of 96-well-microtiter plates containing 200 μl of tap water per well and 5-15 freshly hatched A. aegypti larvae. The active compounds were formulated using a solution containing 75% (v/v) water and 25% (v/v) DMSO. Different concentrations of formulated compounds or mixtures were sprayed onto the insect diet at 2.5 μl, using a custom-built micro atomizer, at two replications.
After application, microtiter plates were incubated at 28±1° C., 80±5% RH for 2 days. Larval mortality was then visually assessed.

[2] = test system: Southern Armyworm (Spodoptera eridania); assay: B.7 Southern Armyworm, 2nd instar larvae, sprayed lima bean plants; details: 96 h, 4 days after treatment, read-out: mortality in comparison with untreated controls
Description: The active compounds were formulated by a Tecan liquid handler in 100% cyclohexanone as a 10′000 ppm solution supplied in tubes. The 10′000 ppm solution was serially diluted in 100% cyclohexanone to make interim solutions. These served as stock solutions for which final dilutions were made by the Tecan in 50% acetone:50% water (v/v) into 10 or 20 ml glass vials. A nonionic surfactant (Kinetic®) was included in the solution at a volume of 0.01% (v/v). The vials were then inserted into an automated electrostatic sprayer equipped with an atomizing nozzle for application to plants/insects. Lima bean plants (variety Sieva) were grown 2 plants to a pot and selected for treatment at the 1st true leaf stage. Test solutions were sprayed onto the foliage by an automated electrostatic plant sprayer equipped with an atomizing spray nozzle. The plants were dried in the sprayer fume hood and then removed from the sprayer. Each pot was placed into perforated plastic bags with a zip closure. Ten to 11 armyworm larvae were placed into the bag and the bags zipped closed. Test plants were maintained in a growth room at about 25° C. and about 20-40% relative humidity for 4 days, avoiding direct exposure to fluorescent light (14:10 light:dark photo-period) to prevent trapping of heat inside the bags. Mortality and reduced feeding were assessed 4 days after treatment, compared to untreated control plants.

[3] = test system: Orchid Thrips (Dichromothrips corbetti); assay: B.6 Orchid Thrips, floral-immersion technique; details: for mortality at 300 ppm: read-out: mortality in comparison with untreated controls; for B.6, 10 ppm: comparative experiment, test B.6 (percent mortality), unit not given
Description: Dichromothrips corbetti adults used for bioassay were obtained from a colony maintained continuously under laboratory conditions. For testing purposes, the test compound was diluted in a 1:1 mixture of acetone:water (vol:vol), plus Kinetic at a rate of 0.01% v/v.
Thrips potency of each compound was evaluated by using a floral-immersion technique. Each orchid petal was dipped into treatment solution and allowed to dry in Petri dishes. Treated petals were placed into individual re-sealable plastic along with about 20 adult thrips. All test arenas were held under dark condition and a temperature of about 28° C. for duration of the assay. The percent mortality was recorded 72 hours after treatment.

[4] = test system: Green Peach Aphid (Myzus persicae); assay: B.2 Green Peach Aphid (mixed life stages), systemic artificial diet under membrane; details: 72 h, read-out: mortality in comparison with untreated controls
Text: For evaluating control of Green Peach Aphid through systemic means the test unit consisted of 96-well-microtiter plates containing liquid artificial diet under an artificial membrane. The compounds were formulated using a solution containing 75% v/v water and 25% v/v DMSO. Different concentrations of formulated compounds were pipetted into the aphid diet, using a custom-built pipette, at two replications. After application, 5-8 adult aphids were placed on the artificial membrane inside the microtiter plate wells. The aphids were then allowed to suck on the treated aphid diet and incubated at about 23±1° C. and about 50±5% relative humidity for 3 days. Aphid mortality and fecundity was then visually assessed.

[5] = test system: Tobacco Budworm (Heliothis virescens); assay: B.3 Tobacco Budworm, microtiter plate with insect diet and eggs; details: 120 h, egg and larval mortality after 5 days, read-out: mortality in comparison with untreated controls
Description: For evaluating control of Tobacco Budworm, the test unit consisted of 96-well-microtiter plates containing an insect diet and 15-25 H. virescens eggs. The compounds were formulated using a solution containing 75% v/v water and 25% v/v DMSO. Different concentrations of formulated compounds were sprayed onto the insect diet at 10 μl, using a custom-built micro atomizer, at two replications. After application, microtiter plates were incubated at about 28±1° C. and about 80±5% relative humidity for 5 days. Egg and larval mortality was then visually assessed.

[6] = test system: Boll Weevil (Anthonomus grandis); assay: B.1 Boll weevil, microtiter plate with insect diet and eggs; details: 120 h, egg and larval mortality after 5 days, read-out: mortality in comparison with untreated controls
Description: For evaluating control of boll weevil, the test unit consisted of 96-well-microtiter plates containing an insect diet and 5-10 A. grandis eggs.
The compounds were formulated using a solution containing 75% v/v water and 25% v/v DMSO. Different concentrations of formulated compounds were sprayed onto the insect diet at 5 μl, using a custom-built micro atomizer, at two replications.
After application, microtiter plates were incubated at about 25±1° C. and about 75±5% relative humidity for 5 days. Egg and larval mortality were then visually assessed.

[7] = test system: Diamond Back Moth (Plutella xylostella); assay: B.5 Diamond Back Moth, cabbage leaf disc dip; details: for mortality at 300 ppm: Plutella xylostella, foliar, 3rd instar larvae, 72 hours after treatment, read-out: mortality in comparison with untreated controls; for B.5, 10 ppm: comparative experiment, test B.5 (mortality), unit not given
Description: The active compound was dissolved at the desired concentration in a mixture of 1:1 (vol:vol) distilled water:acetone. Surfactant (Kinetic) was added at a rate of 0.01% (vol/vol). The test solution was prepared at the day of use. Cabbage leaf discs (60 mm in diameter) were dipped in test solution and air-dried. Treated leaves were placed in petri dishes lined with moistened filter paper and inoculated with ten 3rd instar larvae. Mortality was recorded 72 hours after treatment. Feeding damages were also recorded using a scale of 0-100%.

[8] = test system: Silverleaf Whitefly (Bemisia argentifoli); assay: B.8 Silverleaf Whitefly (adults), sprayed cotton plants; details: 72 h, 3 days after treatment, read-out: mortality in comparison with untreated controls
Description: The active compounds were formulated by a Tecan liquid handler in 100% cyclohexanone as a 10,000-ppm solution supplied in tubes. The 10,000-ppm solution was serially diluted in 100% cyclohexanone to make interim solutions. These served as stock solutions for which final dilutions were made by the Tecan in 50% acetone:50% water (v/v) into 5 or 10 ml glass vials. A nonionic surfactant (Kinetic®) was included in the solution at a volume of 0.01% (v/v). The vials were then inserted into an automated electrostatic sprayer equipped with an atomizing nozzle for application to plants/insects. Cotton plants at the cotyledon stage (one plant per pot) were sprayed by an automated electrostatic plant sprayer equipped with an atomizing spray nozzle. The plants were dried in the sprayer fume hood and then removed from the sprayer. Each pot was placed into a plastic cup and about 10 to 12 whitefly adults (approximately 3-5 days old) were introduced. The insects were collected using an aspirator and a nontoxic Tygon® tubing connected to a barrier pipette tip. The tip, containing the collected insects, was then gently inserted into the soil containing the treated plant, allowing insects to crawl out of the tip to reach the foliage for feeding. Cups were covered with a reusable screened lid. […] Mortality was assessed 3 days after treatment, compared to untreated control 5 plants.

[9] = 300 ppm, adult thrips, 72 hours after treatment
[10] = 2500 ppm, aphid mortality after 3 days

Structure (SMILES): Fc1c(Cl)cc(C2(C(F)(F)F)CC(Oc3ccc(Cl)c(-n4cncn4)c3)=NO2)cc1Cl (stereo not drawn) [I-27, 3-[4-chloro-3-(1,2,4-triazol-1-yl)phenoxy]-5-(3,5-dichloro-4-fluoro-phenyl)-5-(trifluoromethyl)-4H-isoxazole]
- mortality at 2500 ppm [1]: ≥ 75%
- mortality at 300 ppm [2]: ≥ 75%
- mortality at 300 ppm [3, 9]: ≥ 75%
- mortality at 2500 ppm [4, 10]: ≥ 75%
- mortality at 2500 ppm [5]: ≥ 75%
- mortality at 2500 ppm [6]: ≥ 75%

Structure (SMILES): CCN(C1=NOC(c2cc(Cl)c(F)c(Cl)c2)(C(F)(F)F)C1)c1ccc(C#N)c(-n2cncn2)c1 (stereo not drawn) [I-20, 4-[[5-(3,5-dichloro-4-fluoro-phenyl)-5-(trifluoromethyl)-4H-isoxazol-3-yl]-ethyl-amino]-2-(1,2,4-triazol-1-yl)benzonitrile]
- mortality at 300 ppm [3, 9]: ≥ 75%

Structure (SMILES): O=C(NCC(F)(F)F)c1cnn(-c2cc(NC3=NOC(c4cc(Cl)c(F)c(Cl)c4)(C(F)(F)F)C3)ccc2Cl)c1 (stereo not drawn) [I-18, 1-[2-chloro-5-[[5-(3,5-dichloro-4-fluoro-phenyl)-5-(trifluoromethyl)-4H-isoxazol-3-yl]amino]phenyl]-N-(2,2,2-trifluoroethyl)pyrazole-4-carboxamide]
- mortality at 300 ppm [3, 9]: ≥ 75%

Structure (SMILES): CCOC(=O)N(C1=NOC(c2cc(Cl)c(F)c(Cl)c2)(C(F)(F)F)C1)c1ccc(Cl)c(-n2cnc(C(F)(F)F)c2)c1 (stereo not drawn) [I-26, ethyl N-[4-chloro-3-[4-(trifluoromethyl)imidazol-1-yl]phenyl]-N-[5-(3,5-dichloro-4-fluoro-phenyl)-5-(trifluoromethyl)-4H-isoxazol-3-yl]carbamate]
- mortality at 300 ppm ([3]; Thrips, 72 h): ≥ 75%
- mortality at 2500 ppm [4]: ≥ 75%

Structure (SMILES): COCN(C1=NOC(c2cc(Cl)c(F)c(Cl)c2)(C(F)(F)F)C1)c1ccc(Cl)c(-n2cc(C(F)(F)F)cn2)c1 (stereo not drawn) [I-23, N-[4-chloro-3-[4-(trifluoromethyl)pyrazol-1-yl]phenyl]-5-(3,5-dichloro-4-fluoro-phenyl)-N-(methoxymethyl)-5-(trifluoromethyl)-4H-isoxazol-3-amine]
- mortality at 300 ppm [2]: ≥ 75%
- mortality at 300 ppm [3, 9]: ≥ 75%
- mortality at 300 ppm [7]: ≥ 75%

Structure (SMILES): Fc1c(Cl)cc(C2(C(F)(F)F)CC(Nc3ccc(Cl)c(-n4cnc(C(F)(F)F)c4)c3)=NO2)cc1Cl (stereo not drawn) [I-16, N-[4-chloro-3-[4-(trifluoromethyl)imidazol-1-yl]phenyl]-5-(3,5-dichloro4-fluoro-phenyl)-5-(trifluoromethyl)-4H-isoxazol-3-amine]
- mortality at 300 ppm [3, 9]: ≥ 75%

Structure (SMILES): N#Cc1ccc(NC2=NOC(c3cc(Cl)c(F)c(Cl)c3)(C(F)(F)F)C2)cc1-n1cncn1 (stereo not drawn) [I-4, 4-[[5-(3,5-dichloro-4-fluoro-phenyl)-5-(trifluoromethyl)-4H-isoxazol-3-yl]amino]-2-(1,2,4-triazol-1-yl)benzonitrile]
- mortality at 300 ppm [3, 9]: ≥ 75%

Structure (SMILES): N#Cc1ccc(C2=NOC(c3cc(Cl)cc(Cl)c3)(C(F)(F)F)C2)cc1-n1cncn1 [WO2011/073444 Table 3937, No. D-539, reference compound]
- B.6, 10 ppm [3]: 0
- B.5, 10 ppm [7]: 0

Structure (SMILES): N#Cc1ccc(NC2=NOC(c3cc(Cl)cc(Cl)c3)(C(F)(F)F)C2)cc1-n1cncn1 (stereo not drawn) [I-1]
- mortality at 2500 ppm [1]: ≥ 75%
- mortality at 300 ppm [2]: ≥ 75%
- B.6, 10 ppm [3]: 100
- mortality at 300 ppm [3, 9]: ≥ 75%
- mortality at 2500 ppm [4, 10]: ≥ 75%
- B.5, 10 ppm [7]: 100
- mortality at 300 ppm [7]: ≥ 75%
- mortality at 2500 ppm [5]: ≥ 75%
- mortality at 2500 ppm [6]: ≥ 75%

Structure (SMILES): Fc1c(Cl)cc(C2(C(F)(F)F)CC(Nc3ccc(Cl)c(-n4cc(C(F)(F)F)cn4)c3)=NO2)cc1Cl (stereo not drawn) [I-14, N-[4-chloro-3-[4-(trifluoromethyl)pyrazol-1-yl]phenyl]-5-(3,5-dichloro-4-fluoro-phenyl)-5-(trifluoromethyl)-4H-isoxazol-3-amine]
- mortality at 300 ppm [8]: ≥ 75%
- mortality at 300 ppm [3, 9]: ≥ 75%

Structure (SMILES): N#Cc1cnn(-c2cccc(C3=NOC(c4cc(Cl)cc(Cl)c4)(C(F)(F)F)C3)c2)c1 (stereo not drawn) [WO2011/073444 Table C.1, No. I-4, reference compound]
- B.6, 10 ppm [3]: 0
- B.5, 10 ppm [7]: 0
